Assays:
[1] = molecular target: CDK4/CycD3 (Homo sapiens, UniProt P11802); assay: Determination of CDK activity (Caliper mobility shift, FAM-P8 peptide): CDK4; format: biochemical; settings: CDK4/CycD3; read-out: CDK4 enzymatic inhibitory activity (IC50)
How it was run: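 GST-CDK4(1-303)/GST-CycD3(1-292) was preincubated with compound for 10 min at room temperature, then FAM-P8 peptide and ATP were added; the reaction ran at 28 °C and was stopped with EDTA-containing stop buffer. Peptide conversion was read by Caliper mobility shift. A 10-point dilution series was fitted for IC50.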

[2] = molecular target: CDK2/CycA2 (Homo sapiens, UniProt P24941); assay: Determination of CDK activity (Caliper mobility shift, FAM-P8 peptide): CDK2; format: biochemical; settings: CDK2/CycA2; read-out: CDK2 enzymatic inhibitory activity (IC50)
[3] = molecular target: CDK7/CyclinH/MAT1 (Homo sapiens, UniProt P50613); assay: Determination of CDK activity (Caliper mobility shift, FAM-P8 peptide): CDK7; format: biochemical; settings: CDK7/CyclinH/MAT1; read-out: CDK7 enzymatic inhibitory activity (IC50)
Sequence of CDK7/CyclinH/MAT1 (P50613 whole entry): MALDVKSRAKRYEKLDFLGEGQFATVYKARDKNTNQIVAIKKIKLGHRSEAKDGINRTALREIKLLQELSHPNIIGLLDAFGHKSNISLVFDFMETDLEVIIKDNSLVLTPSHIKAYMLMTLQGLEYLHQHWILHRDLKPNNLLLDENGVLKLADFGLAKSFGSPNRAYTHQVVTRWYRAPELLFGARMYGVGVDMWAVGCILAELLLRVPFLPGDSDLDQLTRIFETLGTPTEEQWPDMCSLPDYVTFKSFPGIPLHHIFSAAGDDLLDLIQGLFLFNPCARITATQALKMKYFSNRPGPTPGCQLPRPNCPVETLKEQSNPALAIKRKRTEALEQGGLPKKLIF
Sequence of CDK7/CyclinH/MAT1 (P51946 whole entry partner): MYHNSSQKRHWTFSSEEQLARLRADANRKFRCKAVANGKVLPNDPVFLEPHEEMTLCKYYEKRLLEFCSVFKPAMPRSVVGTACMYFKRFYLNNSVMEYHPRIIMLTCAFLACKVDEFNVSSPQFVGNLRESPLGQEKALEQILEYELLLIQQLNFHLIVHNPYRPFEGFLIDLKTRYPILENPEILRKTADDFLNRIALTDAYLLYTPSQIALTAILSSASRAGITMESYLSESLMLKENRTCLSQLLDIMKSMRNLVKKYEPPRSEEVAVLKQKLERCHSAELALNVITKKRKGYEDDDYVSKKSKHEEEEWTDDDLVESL
Sequence of CDK7/CyclinH/MAT1 (P51948 whole entry partner): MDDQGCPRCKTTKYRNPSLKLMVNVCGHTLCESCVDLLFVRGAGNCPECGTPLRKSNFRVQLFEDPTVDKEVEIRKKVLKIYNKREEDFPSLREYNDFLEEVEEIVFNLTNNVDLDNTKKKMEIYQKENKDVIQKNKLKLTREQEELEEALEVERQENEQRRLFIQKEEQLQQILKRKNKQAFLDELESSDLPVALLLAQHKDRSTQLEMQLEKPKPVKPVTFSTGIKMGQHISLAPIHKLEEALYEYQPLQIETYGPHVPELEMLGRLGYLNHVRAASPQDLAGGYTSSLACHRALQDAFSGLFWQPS
How it was run: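 His-CDK7/GST-MAT1/cyclin H preincubated with compound (10-point series) 10 min at room temperature, then reacted with FAM-P8 peptide plus ATP at 28 °C for a set time before stopping. Peptide conversion read by Caliper mobility shift; converted to % inhibition vs controls and IC50 fitted.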

[4] = molecular target: CDK9/cyclinTl (Homo sapiens, UniProt P50750); assay: Determination of CDK activity (Caliper mobility shift, FAM-P8 peptide): CDK9; format: biochemical; settings: CDK9/cyclinTl; read-out: CDK9 enzymatic inhibitory activity (IC50)
Sequence of CDK9/cyclinTl (P50750 whole entry): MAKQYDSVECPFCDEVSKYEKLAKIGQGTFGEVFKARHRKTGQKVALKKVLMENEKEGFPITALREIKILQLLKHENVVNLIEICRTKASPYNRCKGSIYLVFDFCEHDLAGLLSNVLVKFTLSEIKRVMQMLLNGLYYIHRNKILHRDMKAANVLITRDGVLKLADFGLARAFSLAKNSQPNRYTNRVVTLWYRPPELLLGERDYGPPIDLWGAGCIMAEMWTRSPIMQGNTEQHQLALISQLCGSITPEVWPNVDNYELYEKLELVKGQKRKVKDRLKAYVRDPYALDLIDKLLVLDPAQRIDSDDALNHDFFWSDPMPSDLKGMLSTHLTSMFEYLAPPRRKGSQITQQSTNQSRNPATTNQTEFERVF
Sequence of CDK9/cyclinTl (O60563 whole entry partner): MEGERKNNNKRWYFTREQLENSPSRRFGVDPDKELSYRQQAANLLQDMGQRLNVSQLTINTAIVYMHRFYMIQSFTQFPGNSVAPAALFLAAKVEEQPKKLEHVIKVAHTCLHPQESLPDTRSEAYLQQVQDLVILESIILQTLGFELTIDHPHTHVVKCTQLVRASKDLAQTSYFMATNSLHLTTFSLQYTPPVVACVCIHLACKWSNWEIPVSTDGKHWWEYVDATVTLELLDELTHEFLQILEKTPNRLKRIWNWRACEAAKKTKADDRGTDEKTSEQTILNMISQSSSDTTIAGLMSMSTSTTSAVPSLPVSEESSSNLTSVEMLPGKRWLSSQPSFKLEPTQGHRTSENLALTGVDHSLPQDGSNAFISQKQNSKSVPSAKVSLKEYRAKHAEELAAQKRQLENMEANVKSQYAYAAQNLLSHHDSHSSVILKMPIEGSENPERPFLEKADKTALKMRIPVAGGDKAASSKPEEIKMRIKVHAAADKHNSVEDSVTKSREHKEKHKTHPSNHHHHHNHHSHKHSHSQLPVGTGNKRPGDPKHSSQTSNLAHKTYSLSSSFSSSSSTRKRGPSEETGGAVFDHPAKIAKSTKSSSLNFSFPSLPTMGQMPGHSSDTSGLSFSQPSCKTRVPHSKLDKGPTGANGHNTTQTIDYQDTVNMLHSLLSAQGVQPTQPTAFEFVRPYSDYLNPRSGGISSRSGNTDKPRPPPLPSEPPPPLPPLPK

[5] = system: Human breast cancer MCF-7 cells; assay: Pharmacodynamic study on mouse MCF-7 model (subcutaneous xenograft); format: in vivo, BALB/c nude mice; settings: for Tumor volume (day 0) / antitumor effect compared with Abemaciclib (in words) / Tumor volume (day 14) / T/C relative tumor proliferation rate / TGI tumor growth inhibition rate: MCF-7 model; for Tumor volume (day 0): baseline at start of dosing; for Tumor volume (day 0) / Tumor volume (day 14) / T/C relative tumor proliferation rate / TGI tumor growth inhibition rate: mesylate, 30 mg/kg PO × 14 days; for antitumor effect compared with Abemaciclib (in words): same dosage (30 mg/kg PO × 14 days); for T/C relative tumor proliferation rate / TGI tumor growth inhibition rate: day 14; for inhibitory effect on the tumor growth (in words): MCF-7 nude mouse model, 30 mg/kg, continuous PO administration for 14 days
[6] = system: Human breast cancer MDA-MB-361 cells; assay: Pharmacodynamic study on mouse MDA-MB-361 model (subcutaneous xenograft); format: in vivo, SCID Beige mice; settings: for inhibitory effect on the tumor growth (in words): 15 mg/kg, continuous PO administration for 28 days; for Tumor volume (day 0): baseline at start of dosing; for Tumor volume (day 0) / Tumor volume (day 28) / T/C relative tumor proliferation rate / TGI tumor growth inhibition: methanesulfonic acid salt, 15 mg/kg PO × 28 days; for T/C relative tumor proliferation rate / TGI tumor growth inhibition: day 28

Sequence of CDK4/CycD3 (P11802 whole entry): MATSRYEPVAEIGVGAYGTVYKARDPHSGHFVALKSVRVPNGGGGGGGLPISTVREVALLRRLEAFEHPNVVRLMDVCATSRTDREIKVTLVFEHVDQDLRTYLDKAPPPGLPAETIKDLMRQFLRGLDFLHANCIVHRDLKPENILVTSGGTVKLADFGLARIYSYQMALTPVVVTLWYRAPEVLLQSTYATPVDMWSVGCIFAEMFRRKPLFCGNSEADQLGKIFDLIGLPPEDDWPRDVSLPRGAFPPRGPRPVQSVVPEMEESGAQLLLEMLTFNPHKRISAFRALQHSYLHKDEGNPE
Sequence of CDK4/CycD3 (P30281 whole entry partner): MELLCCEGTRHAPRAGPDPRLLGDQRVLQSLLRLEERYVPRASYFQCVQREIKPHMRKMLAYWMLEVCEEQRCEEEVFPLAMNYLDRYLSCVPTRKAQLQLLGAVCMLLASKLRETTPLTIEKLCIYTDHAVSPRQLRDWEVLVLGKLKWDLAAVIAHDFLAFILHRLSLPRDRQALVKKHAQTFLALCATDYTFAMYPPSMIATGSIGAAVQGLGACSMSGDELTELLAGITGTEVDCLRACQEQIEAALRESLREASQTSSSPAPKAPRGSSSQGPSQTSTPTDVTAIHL

SMILES	IC50 [1]	IC50 [2]	IC50 [3]	IC50 [4]	Tumor volume (day 0) [5]	antitumor effect compared with Abemaciclib (in words) [5]	Tumor volume (day 14) [5]	T/C relative tumor proliferation rate [5]	TGI tumor growth inhibition rate [5]	inhibitory effect on the tumor growth (in words) [5]	inhibitory effect on the tumor growth (in words) [6]	Tumor volume (day 0) [6]	Tumor volume (day 28) [6]	T/C relative tumor proliferation rate [6]	TGI tumor growth inhibition [6]
CCN1CCC(=Cc2ccc(Nc3ncc(F)c(-c4cc(F)c5nc(C)n(C(C)C)c5c4)n3)nc2)CC1 [Example 57, N-(5-((1-ethylpiperidin-4-ylidene)methyl)pyridin-2-yl)-5-fluoro-4-(4-fluoro-1-isopropyl-2-methyl-1H-benzo[d]imidazol-6-yl)pyrimidin-2-amine]	< 100 nM	< 100 nM	1000 to 10000 nM	< 100 nM	209 mm^3	better antitumor effects than positive control compound Abemaciclib	290 mm^3	12.5%	87.5%	strong inhibitory effect	very strong inhibitory effect	175 mm^3	99 mm^3	−43%	143%
CCN1CCC(C(C)c2ccc(Nc3ncc(F)c(-c4cc(F)c5nc(C)n(C(C)C)c5c4)n3)nc2)CC1 (single isomer, unassigned) [Example 17, (R or S)—N-(5-(1-(1-ethylpiperidin-4-yl)ethyl)pyridin-2-yl)-5-fluoro-4-(4-fluoro-1-isopropyl-2-methyl-1H-benzo[d]imidazol-6-yl) pyrimidin-2-amine]	< 100 nM	< 100 nM	1000 to 10000 nM	100 to 500 nM	210 mm^3	better antitumor effects than positive control compound Abemaciclib	216 mm^3	0.9%	99.1%	strong inhibitory effect	very strong inhibitory effect	175 mm^3	90 mm^3	−49%	149%

— patent US11179391B2, “Compound with kinase inhibitory activity and preparation method and use thereof” (priority 2017, dated 2021)
